Data from patent EP0877022A1, “Synthesis of the sulfonylpyrimidine derivatives with anticancer activity” (Herbos d.d., priority 1997, dated 1998).
Where two headings read alike, the source gives them in different places.

Columns and labels:
Assay type in all cases: cell-based
[1] = system: human cervix carcinoma (HeLa); test: Growth inhibitory effects on HeLa cells (MTT staining); conditions: concentration 10^-5 M, read-out: inhibition of cell growth
Description: (§1) Cell lines. Human tumor pancreatic carcinoma cells (MiaPaCa 2), laryngeal carcinoma (Hep 2), human cervical carcinoma (HeLa) and normal human fibroblasts (Hef 2) were grown as monolayers at 37 °C in a humidified atmosphere with 5% CO2 in DMEM supplemented with 10% fetal calf serum, 2 mM glutamine, 100 U/ml penicillin and […] streptomycin.
(§2) Cell Cytotoxicity. To the purpos of the experiments the cells ([…]; 2x10^4 cells/ml) were plated onto 96-microwell plates. After 24 hours, test compounds at different concentrations (10^-4-10^-8 M), were added to the cells. Three days later, cell viability was determined by […]. The control cells were grown under same conditions without addition of test compounds. […] This method depends on the conversion of a water-soluble tetrazolium salt (MTT) to a purple colored formazan precipitate. The reaction affected by dehydrogenase enzymes active only in living cells. Tests were carried out in 96-well microculture plates. 10^4 viable tumor cells per well at 4 h incubation time 20 µg MTT7100 µl total medium volume. Formazan crystals were dissolved in DMSO and the plates were immediately measured on a microculture plate reader at 540 nm.

[2] = system: laryngeal carcinoma (Hep 2); test: Growth inhibitory effects on Hep 2 cells (MTT staining); conditions: Homo sapiens, concentration 10^-5 M, read-out: inhibition of cell growth
Description: as §1, §2

[3] = system: human tumor pancreatic carcinoma (MiaPaCa 2); test: Growth inhibitory effects on MiaPaCa 2 cells (MTT staining); conditions: MIA PaCa-2, concentration 10^-5 M, read-out: inhibition of cell growth
Description: as §1, §2

[4] = system: normal human fibroblasts (Hef 2); test: Growth inhibitory effects on normal Hef 2 fibroblasts (MTT staining); conditions: Fibroblast, Hef 2 normal cells, concentration 10^-5 M, read-out: inhibition of cell growth
Description: as §1, §2

Row | SMILES | inhibition at 10 µM [1] | inhibition at 10 µM ([2]; Hep 2) | inhibition at 10 µM [3] | inhibition at 10 µM [4] | inhibition at 10 µM ([2]; HEp-2, Hep 2)
1 | Cc1ccc(S(=O)(=O)n2cc(Br)c(=O)[nH]c2=O)cc1 [compound 2] | 85% | 20% | 80% |  | 
2 | Cc1ccc(S(=O)(=O)n2ccc(N)nc2=O)cc1 [compound 4] | 85% |  | 65% | 20% | 20%
